Source: US20140323300A1, “HERBICIDAL COMPOUNDS” (SYNGENTA LIMITED, priority 2011, published 2014)

Columns and labels:
Type in all cases: in vivo
Solanum nigrum (SOLNI) [1] = assay: Pre-emergence glasshouse herbicide test; conditions: pre-emergence (sprayed after one day cultivation), 1000 g/h, evaluated after 13 days, five point scale
Procedure, shortened: (§1)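 Damage was rated 13 days after treatment on a five-point scale (1 = 0–19%, 5 = 80–100%). The compound, formulated in 50:50 acetone/water with 0.5% Tween 20, was sprayed at 1000 g/h on pots one day (pre) or 8 days (post) after sowing, kept in a glasshouse at 24/16° C, 14 h light, 65% humidity.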

[2] = system: Amaranthus retoflexus (AMARE); assay: Pre-emergence glasshouse herbicide test; conditions: pre-emergence (sprayed after one day cultivation), 1000 g/h, evaluated after 13 days, five point scale
Procedure, shortened: as §1

Setaria faberi (SETFA) [3] = assay: Pre-emergence glasshouse herbicide test; conditions: pre-emergence (sprayed after one day cultivation), 1000 g/h, evaluated after 13 days, five point scale
Procedure, shortened: as §1

[4] = system: Echinochloa crus-galli (ECHCG); assay: Pre-emergence glasshouse herbicide test; conditions: pre-emergence (sprayed after one day cultivation), 1000 g/h, evaluated after 13 days, five point scale
Procedure, shortened: as §1

[5] = system: Alopecurus myosuroides (ALOMY); assay: Pre-emergence glasshouse herbicide test; conditions: pre-emergence (sprayed after one day cultivation), 1000 g/h, evaluated after 13 days, five point scale
Procedure, shortened: as §1

[6] = system: Ipomoea hederacea (IPOHE); assay: Pre-emergence glasshouse herbicide test; conditions: pre-emergence (sprayed after one day cultivation), 1000 g/h, evaluated after 13 days, five point scale
Procedure, shortened: as §1

Solanum nigrum (SOLNI) [7] = assay: Post-emergence glasshouse herbicide test; conditions: post-emergence (sprayed after 8 days cultivation), 1000 g/h, evaluated after 13 days, five point scale
Procedure, shortened: as §1

[8] = system: Amaranthus retoflexus (AMARE); assay: Post-emergence glasshouse herbicide test; conditions: post-emergence (sprayed after 8 days cultivation), 1000 g/h, evaluated after 13 days, five point scale
Procedure, shortened: as §1

Setaria faberi (SETFA) [9] = assay: Post-emergence glasshouse herbicide test; conditions: post-emergence (sprayed after 8 days cultivation), 1000 g/h, evaluated after 13 days, five point scale
Procedure, shortened: as §1

[10] = system: Echinochloa crus-galli (ECHCG); assay: Post-emergence glasshouse herbicide test; conditions: post-emergence (sprayed after 8 days cultivation), 1000 g/h, evaluated after 13 days, five point scale
Procedure, shortened: as §1

[11] = system: Alopecurus myosuroides (ALOMY); assay: Post-emergence glasshouse herbicide test; conditions: post-emergence (sprayed after 8 days cultivation), 1000 g/h, evaluated after 13 days, five point scale
Procedure, shortened: as §1

[12] = system: Ipomoea hederacea (IPOHE); assay: Post-emergence glasshouse herbicide test; conditions: post-emergence (sprayed after 8 days cultivation), 1000 g/h, evaluated after 13 days, five point scale
Procedure, shortened: as §1

SMILES | percentage damage caused to the plant, PRE Application SOLNI (Solanum nigrum (SOLNI) [1]) | percentage damage caused to the plant, PRE Application AMARE [2] | percentage damage caused to the plant, PRE Application SETFA (Setaria faberi (SETFA) [3]) | percentage damage caused to the plant, PRE Application ECHCG [4] | percentage damage caused to the plant, PRE Application ALOMY [5] | percentage damage caused to the plant, PRE Application IPOHE [6] | percentage damage caused to the plant, POST Application SOLNI (Solanum nigrum (SOLNI) [7]) | percentage damage caused to the plant, POST Application AMARE [8] | percentage damage caused to the plant, POST Application SETFA (Setaria faberi (SETFA) [9]) | percentage damage caused to the plant, POST Application ECHCG [10] | percentage damage caused to the plant, POST Application ALOMY [11] | percentage damage caused to the plant, POST Application IPOHE [12]
Cc1c(-n2ncc(C#N)c(O)c2=O)ccc(S(C)(=O)=O)c1C1=NOCC1 [Compound 1.026] | 5 (5=80-100%) | 5 (5=80-100%) | 5 (5=80-100%) | 5 (5=80-100%) | 1 (1=0-19%) | 5 (5=80-100%) | 5 (5=80-100%) | 5 (5=80-100%) | 5 (5=80-100%) | 5 (5=80-100%) | 1 (1=0-19%) | 5 (5=80-100%)
Cc1nc(C(F)(F)F)ccc1-n1nccc(O)c1=O.O=C(O)C(F)(F)F [Compound 1.027] | 5 (5=80-100%) | 4 (4=60-79%) | 4 (4=60-79%) | 5 (5=80-100%) | 1 (1=0-19%) | 5 (5=80-100%) | 5 (5=80-100%) | 4 (4=60-79%) | 4 (4=60-79%) | 5 (5=80-100%) | 1 (1=0-19%) | 5 (5=80-100%)
Cc1nc(C(F)(F)F)ccc1-n1ncc(S(C)(=O)=O)c(O)c1=O [Compound 1.029] | 4 (4=60-79%) | 3 (3=40-59%) | 4 (4=60-79%) | 4 (4=60-79%) | 1 (1=0-19%) | 2 (2=20-39%) | 4 (4=60-79%) | 3 (3=40-59%) | 4 (4=60-79%) | 4 (4=60-79%) | 1 (1=0-19%) | 2 (2=20-39%)
Cc1nc(C(F)(F)F)ccc1-n1ncc([S+](C)[O-])c(O)c1=O (stereo not drawn) [Compound 1.030] | 5 (5=80-100%) | 4 (4=60-79%) | 5 (5=80-100%) | 5 (5=80-100%) | 2 (2=20-39%) | 3 (3=40-59%) | 5 (5=80-100%) | 4 (4=60-79%) | 5 (5=80-100%) | 5 (5=80-100%) | 2 (2=20-39%) | 3 (3=40-59%)
CS(=O)(=O)c1cc(C(F)(F)F)ccc1-n1ncc(C2CC2)c(O)c1=O [Compound 1.031] | 5 (5=80-100%) | 5 (5=80-100%) | 5 (5=80-100%) | 5 (5=80-100%) | 5 (5=80-100%) | 5 (5=80-100%) | 5 (5=80-100%) | 5 (5=80-100%) | 5 (5=80-100%) | 5 (5=80-100%) | 5 (5=80-100%) | 5 (5=80-100%)
CS(=O)(=O)c1cc(C(F)(F)F)ccc1-n1ncc(Br)c(O)c1=O [Compound 1.032] | 5 (5=80-100%) | 5 (5=80-100%) | 5 (5=80-100%) | 5 (5=80-100%) | 5 (5=80-100%) | 5 (5=80-100%) | 5 (5=80-100%) | 5 (5=80-100%) | 5 (5=80-100%) | 5 (5=80-100%) | 5 (5=80-100%) | 5 (5=80-100%)
CSc1cnn(-c2ccc(C(F)(F)F)cc2S(C)(=O)=O)c(=O)c1O [Compound 1.034] | 5 (5=80-100%) | 5 (5=80-100%) | 3 (3=40-59%) | 4 (4=60-79%) | 1 (1=0-19%) | 4 (4=60-79%) | 5 (5=80-100%) | 5 (5=80-100%) | 3 (3=40-59%) | 4 (4=60-79%) | 1 (1=0-19%) | 4 (4=60-79%)
